Test results from patent US8871753B2, “Macrocyclic compounds and their use as kinase inhibitors” (Incyte Corporation, priority 2008, dated 2014).
Where two headings read alike, the source gives them in different places.

Experiments:
Format in all cases: biochemical
Details in all cases: Table D1
[1] = molecular target: T1, human JAK2 (a.a. 828-1132) (Homo sapiens, UniProt O60674); experiment: In vitro JAK kinase assay (HTRF, phosphorylation of a biotinylated peptide), JAK2
T1 construct: JAK2 (a.a. 828-1132); His tag (N); made in house; host or cells: insect cells (baculovirus)
Method in brief: (§1)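 Phosphorylation of a biotinylated peptide by the JAK kinase domain, detected by HTRF with Eu-Py20 and SA-APC. ATP was 90 μM for JAK1, 30 μM for JAK2 and 3 μM for JAK3. Reactions ran 1 h at room temperature and were stopped with EDTA, followed by 40 min antibody binding.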

[2] = molecular target: T2, human JAK3 (a.a. 781-1124) (Homo sapiens, UniProt P52333); experiment: In vitro JAK kinase assay (HTRF, phosphorylation of a biotinylated peptide), JAK3
T2 construct: JAK3 (a.a. 781-1124); His tag (N); made in house; host or cells: insect cells (baculovirus)
Method in brief: as §1

[3] = molecular target: T3, human JAK1 (a.a. 837-1142) (Homo sapiens, UniProt P23458); experiment: In vitro JAK kinase assay (HTRF, phosphorylation of a biotinylated peptide), JAK1
T3 construct: human JAK1 (a.a. 837-1142); His tag (N); made in house; host or cells: insect cells (baculovirus)
Method in brief: as §1

TYK2 = TYK2 (Homo sapiens, UniProt P29597); experiment: TYK2 kinase inhibition (Table A1)
Sequence of TYK2 (P29597 whole entry): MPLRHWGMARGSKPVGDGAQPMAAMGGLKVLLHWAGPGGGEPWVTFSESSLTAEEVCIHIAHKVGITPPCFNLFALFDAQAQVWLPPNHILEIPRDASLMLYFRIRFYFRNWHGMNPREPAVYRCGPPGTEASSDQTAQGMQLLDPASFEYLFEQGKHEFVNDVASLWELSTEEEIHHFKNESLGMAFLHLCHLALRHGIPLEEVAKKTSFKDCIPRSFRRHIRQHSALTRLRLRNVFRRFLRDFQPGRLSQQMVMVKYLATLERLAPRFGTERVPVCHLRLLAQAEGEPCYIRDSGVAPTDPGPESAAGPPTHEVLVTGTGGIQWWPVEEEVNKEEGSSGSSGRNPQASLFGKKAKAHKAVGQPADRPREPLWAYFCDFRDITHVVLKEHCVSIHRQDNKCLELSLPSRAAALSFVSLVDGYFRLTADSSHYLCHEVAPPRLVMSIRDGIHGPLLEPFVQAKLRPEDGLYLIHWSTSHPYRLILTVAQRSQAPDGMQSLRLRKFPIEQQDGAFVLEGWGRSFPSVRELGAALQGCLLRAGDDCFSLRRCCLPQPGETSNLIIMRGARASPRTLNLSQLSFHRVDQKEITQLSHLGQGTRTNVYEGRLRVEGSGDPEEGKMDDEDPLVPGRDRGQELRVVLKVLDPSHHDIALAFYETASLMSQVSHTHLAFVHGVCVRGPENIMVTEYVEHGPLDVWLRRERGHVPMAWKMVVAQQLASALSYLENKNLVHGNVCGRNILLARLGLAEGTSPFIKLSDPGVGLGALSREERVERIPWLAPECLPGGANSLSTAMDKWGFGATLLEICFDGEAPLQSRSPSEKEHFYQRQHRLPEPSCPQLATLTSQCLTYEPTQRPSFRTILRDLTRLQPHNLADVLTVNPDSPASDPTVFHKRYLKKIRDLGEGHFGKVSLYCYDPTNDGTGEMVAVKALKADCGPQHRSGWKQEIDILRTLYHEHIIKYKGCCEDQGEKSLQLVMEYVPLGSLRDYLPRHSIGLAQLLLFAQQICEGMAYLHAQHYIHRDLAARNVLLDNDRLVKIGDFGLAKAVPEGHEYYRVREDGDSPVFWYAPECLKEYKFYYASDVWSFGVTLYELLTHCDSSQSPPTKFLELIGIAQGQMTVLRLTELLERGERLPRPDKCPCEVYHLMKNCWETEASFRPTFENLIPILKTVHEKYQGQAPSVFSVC

T2 sequence (P52333 781-1124): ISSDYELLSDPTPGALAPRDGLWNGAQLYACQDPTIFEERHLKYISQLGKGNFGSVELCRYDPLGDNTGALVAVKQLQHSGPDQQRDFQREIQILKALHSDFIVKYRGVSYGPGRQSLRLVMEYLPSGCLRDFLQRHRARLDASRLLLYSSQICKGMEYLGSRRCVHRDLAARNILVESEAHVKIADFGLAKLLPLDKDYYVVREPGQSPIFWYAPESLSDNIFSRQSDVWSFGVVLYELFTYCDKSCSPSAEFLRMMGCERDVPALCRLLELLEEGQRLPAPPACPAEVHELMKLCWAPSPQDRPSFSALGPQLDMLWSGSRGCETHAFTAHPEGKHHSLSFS
T3 sequence (P23458 849-1154): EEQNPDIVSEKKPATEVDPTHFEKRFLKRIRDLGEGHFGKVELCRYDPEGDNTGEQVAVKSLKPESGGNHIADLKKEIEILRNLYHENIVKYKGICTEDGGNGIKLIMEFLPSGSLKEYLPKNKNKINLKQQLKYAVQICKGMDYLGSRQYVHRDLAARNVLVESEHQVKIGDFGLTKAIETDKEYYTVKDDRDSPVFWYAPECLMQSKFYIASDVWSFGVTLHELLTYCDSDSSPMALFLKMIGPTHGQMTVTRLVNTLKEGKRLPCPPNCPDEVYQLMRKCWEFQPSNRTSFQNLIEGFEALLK
T1 sequence (O60674 828-1132): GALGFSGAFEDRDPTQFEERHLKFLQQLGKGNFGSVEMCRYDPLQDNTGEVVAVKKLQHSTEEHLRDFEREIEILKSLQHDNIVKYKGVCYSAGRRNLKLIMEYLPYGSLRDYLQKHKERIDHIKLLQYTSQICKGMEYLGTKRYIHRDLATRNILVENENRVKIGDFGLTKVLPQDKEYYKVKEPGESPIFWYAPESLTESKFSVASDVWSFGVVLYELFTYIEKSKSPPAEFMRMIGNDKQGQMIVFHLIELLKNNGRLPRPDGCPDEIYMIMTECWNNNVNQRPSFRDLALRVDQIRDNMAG

IC50 [1] [nM] | IC50 [2] [nM] | IC50 ([3]; read-out: JAK1 IC50) [nM] | IC50 (TYK2) [nM] | SMILES | IC50 ([3]; JAK1 IC50 (nM)) [nM]
95 | > 400 | 21 | 265 | O=C(CC1CN(c2nccs2)C1)Nc1ccc2cc1CCc1cncc(c1)Nc1ncc(Cl)c(n1)N2 [Example D152, N-[6-Chloro-2,4,8,18,22-pentaazatetracyclo[14.3.1.1(3,7).1(9,13)]docosa-1(20),3(22),4,6,9(21),10,12,16,18-nonaen-12-yl]-2-[1-(1,3-thiazol-2-yl)azetidin-3-yl]acetamide tris(trifluoroacetate)] | –
150 | > 400 | 30 | > 400 | O=C(CC1CN(c2ccccn2)C1)Nc1ccc2cc1CCc1cncc(c1)Nc1ncc(Cl)c(n1)N2 [Example D153, N-[6-Chloro-2,4,8,18,22-pentaazatetracyclo[14.3.1.1(3,7).1(9,13)]docosa-1(20),3(22),4,6,9(21),10,12,16,18-nonaen-12-yl]-2-(1-pyridin-2-ylazetidin-3-yl)acetamide tris(trifluoroacetate)] | –
59 | > 400 | 7.8 | 226 | O=C(CC1CCN(c2nccs2)C1)Nc1ccc2cc1CCc1cncc(c1)Nc1ncc(Cl)c(n1)N2 (centres unmarked) [Example D154, N-[6-Chloro-2,4,8,18,22-pentaazatetracyclo[14.3.1.1(3,7).1(9,13)]docosa-1(20),3(22),4,6,9(21),10,12,16,18-nonaen-12-yl]-2-[1-(1,3-thiazol-2-yl)pyrrolidin-3-yl]acetamide tris(trifluoroacetate)] | –
120 | > 400 | 29 | > 400 | O=C(CC1CCN(c2nncs2)C1)Nc1ccc2cc1CCc1cncc(c1)Nc1ncc(Cl)c(n1)N2 (centres unmarked) [Example D155, N-[6-Chloro-2,4,8,18,22-pentaazatetracyclo[14.3.1.1(3,7).1(9,13)]docosa-1(20),3(22),4,6,9(21),10,12,16,18-nonaen-12-yl]-2-[1-(1,3,4-thiadiazol-2-yl)pyrrolidin-3-yl]acetamide tris(trifluoroacetate)] | –
29 | > 400 | 24 | 217 | O=C(CC1CCN(c2ccccn2)C1)Nc1ccc2cc1CCc1cncc(c1)Nc1ncc(Cl)c(n1)N2 (centres unmarked) [Example D156, N-[6-Chloro-2,4,8,18,22-pentaazatetracyclo[14.3.1.1(3,7).1(9,13)]docosa-1(20),3(22),4,6,9(21),10,12,16,18-nonaen-12-yl]-2-(1-pyridin-2-ylpyrrolidin-3-yl)acetamide tris(trifluoroacetate)] | –
> 400 | > 400 | 39 | > 400 | O=C(CC1CCN(c2ccncc2)C1)Nc1ccc2cc1CCc1cncc(c1)Nc1ncc(Cl)c(n1)N2 (centres unmarked) [Example D157, N-[6-Chloro-2,4,8,18,22-pentaazatetracyclo[14.3.1.1(3,7).1(9,13)]docosa-1(20),3(22),4,6,9(21),10,12,16,18-nonaen-12-yl]-2-(1-pyridin-4-ylpyrrolidin-3-yl)acetamide tris(trifluoroacetate)] | –
> 400 | > 400 | 150 | > 400 | CC(=O)N1CCC(Nc2ccc3cc2CCc2cncc(c2)Nc2ncc(Cl)c(n2)N3)CC1 [Example D158, N-(1-Acetylpiperidin-4-yl)-6-chloro-2,4,8,18,22-pentaazatetracyclo[14.3.1.1(3,7).1(9,13)]docosa-1(20),3(22),4,6,9(21),10,12,16,18-nonaen-12-amine tris(trifluoroacetate)] | –
> 400 | > 400 | 313 | > 400 | O=C(Cc1ccccc1)N1CCC(Nc2ccc3cc2CCc2cncc(c2)Nc2ncc(Cl)c(n2)N3)CC1 [Example D159, 6-Chloro-N-[1-(phenylacetyl)piperidin-4-yl]-2,4,8,18,22-pentaazatetracyclo[14.3.1.1(3,7).1(9,13)]docosa-1(20),3(22),4,6,9(21),10,12,16,18-nonaen-12-amine tris(trifluoroacetate)] | –
341 | > 400 | 244 | > 400 | Cc1cc(C(=O)N2CCC(Nc3ccc4cc3CCc3cncc(c3)Nc3ncc(Cl)c(n3)N4)CC2)no1 [Example D160, 6-Chloro-N-{1-[(5-methylisoxazol-3-yl)carbonyl]piperidin-4-yl}-2,4,8,18,22-pentaazatetracyclo[14.3.1.1(3,7).1(9,13)]docosa-1(20),3(22),4,6,9(21),10,12,16,18-nonaen-12-amine tris(trifluoroacetate)] | –
71 | > 400 | 10 | > 400 | O=C(Nc1ccccc1)N1CCC(CCOc2ccc3cc2CCc2cncc(c2)Nc2ncc(Cl)c(n2)N3)CC1 [Example D162, 4-(2-{[6-Chloro-2,4,8,18,22-pentaazatetracyclo[14.3.1.1(3,7).1(9,13)]docosa-1(20),3(22),4,6,9(21),10,12,16,18-nonaen-12-yl]oxy}ethyl)-N-phenylpiperidine-1-carboxamide bis(trifluoroacetate)] | –
75 | > 400 | 39 | > 400 | Cc1occc1NC(=O)N1CCC(CCOc2ccc3cc2CCc2cncc(c2)Nc2ncc(Cl)c(n2)N3)CC1 [Example D164, 4-(2-{[6-Chloro-2,4,8,18,22-pentaazatetracyclo[14.3.1.1(3,7).1(9,13)]docosa-1(20),3(22),4,6,9(21),10,12,16,18-nonaen-12-yl]oxy}ethyl)-N-(2-methyl-3-furyl)piperidine-1-carboxamide bis(trifluoroacetate)] | –
208 | > 400 | 52 | > 400 | O=C(NCc1ccco1)N1CCC(CCOc2ccc3cc2CCc2cncc(c2)Nc2ncc(Cl)c(n2)N3)CC1 [Example D165, 4-(2-{[6-Chloro-2,4,8,18,22-pentaazatetracyclo[14.3.1.1(3,7).1(9,13)]docosa-1(20),3(22),4,6,9(21),10,12,16,18-nonaen-12-yl]oxy}ethyl)-N-(2-furylmethyl)piperidine-1-carboxamide bis(trifluoroacetate)] | –

SMILES | IC50 [1] [nM] | IC50 [2] [nM] | IC50 ([3]; read-out: JAK1 IC50) [nM] | IC50 (TYK2) [nM] | IC50 ([3]; JAK1 IC50 (nM)) [nM]
CC(=O)N1CCC(CCOc2ccc3cc2CCc2cncc(c2)Nc2ncc(Cl)c(n2)N3)CC1 [Example D161, 12-[2-(1-Acetylpiperidin-4-yl)ethoxy]-6-chloro-2,4,8,18,22-pentaazatetracyclo[14.3.1.1(3,7).1(9,13)]docosa-1(20),3(22),4,6,9(21),10,12,16,18-nonaene bis(trifluoroacetate)] | 276 | > 400 | – | > 400 | 85
N#Cc1ccccc1S(=O)(=O)N1CCC(CCOc2ccc3cc2CCc2cncc(c2)Nc2ncc(Cl)c(n2)N3)CC1 [Example D163, 2-{[4-(2-{[6-Chloro-2,4,8,18,22-pentaazatetracyclo[14.3.1.1(3,7).1(9,13)]docosa-1(20),3(22),4,6,9(21),10,12,16,18-nonaen-12-yl]oxy}ethyl)piperidin-1-yl]sulfonyl}benzonitrilebis(trifluoroacetate)] | > 400 | > 400 | 190 | > 400 | –
